# Columns and labels:
# [1] = maximum tolerated dose of clofarabine; format: in vivo; conditions: species and study not stated
# Experimental: It may be necessary to use dosages of the active ingredient outside the ranges disclosed herein in some cases, as will be apparent to those of ordinary skill in the art, but the dosage should not fall below 1.0 mg/kg/day. The maximum tolerated doses of clofarabine is approximately 80 mg/kg per day. Furthermore, it is noted that the clinician or treating physician will know how and when to interrupt, adjust, or terminate therapy in conjunction with individual patient response.
# [2] = degradation of the drug during dissolution, lyophilization and drying of the parenteral formulation; format: physicochemical; conditions: dissolution in tertiary butanol/Water for Injection at 5° C., lyophilization at −16° C. for 48 hours, drying at 15° C. under high vacuum for 48 hours, protected from light
# Experimental: Clofarabine, 9.86 g, is wetted/partially dissolved with 600 mL of a 9:1 mixture of tertiary butanol and Water for Injection USP which is pre-cooled to 5° C. Once the drug powder is completely wetted, dissolution is completed by the addition of 600 mL of a 1:9 mixture of tertiary butanol and Water for Injection and 766 mL of a 1:1 mixture of tertiary butanol and Water for Injection which likewise is pre-cooled to 5° C. thereby making the final solution a 1:1 mixture. The dissolution is carried out under protection from light.
# The solution formed above is promptly lyophilized in a Virtis INOTOP lyophilizer at −16° C. under light protectant conditions over a period of 48 hours. The resultant lyophilized product (lyophile) is then further dried at 15° C. under high vacuum for 48 hours. […] The lyophile is packaged under sterile conditions into 30 mL vials, each containing 50 mg of drug, 50 mg of mannitol and sodium hydroxide to adjust the pH to 7.7 and standard excess to allow for vial/needle/syringe loss.
smiles,measurement,setting,value
"Nc1nc(Cl)nc2c1ncn2[C@@H]1O[C@H](CO)[C@@H](O)[C@@H]1F [Clofarabine, 2 Chloro 9 (2 deoxy 2 fluoro β D arabinofuranosyl)adenine]",maximum tolerated dose,[1],approximately 80 mg/kg per day
same,degradation of the drug,[2],No detectable degradation
